Earlier results, collected in article PMC12495087 (ESMO Open, 2025).
Where two headings read alike, the source gives them in different places.

What was measured:
[1] = test system: RET-fusion-positive solid tumors including RET-mutant MTC; conditions: cited from earlier work
[2] = test system: RET-fusion-positive NSCLC; conditions: cited from earlier work
[3] = cited from earlier work
[4] = previously treated RET-fusion-positive solid tumors including RET-mutant MTC, 160 mg twice daily
[5] = previously treated RET-fusion-positive NSCLC, selpercatinib 160 mg twice daily, pralsetinib 400 mg once daily
[6] = advanced RET-rearranged lung adenocarcinomas
[7] = patients with MTC harboring RET-M918T

SMILES: COc1ccc(CN2C3CC2CN(c2ccc(-c4cc(OCC(C)(C)O)cn5ncc(C#N)c45)cn2)C3)cn1 [selpercatinib]
- 1-year PFS [1, 4]: 82%
- mPFS [1, 4]: 13.2 months
- mPFS ([2]; previously treated RET-fusion-positive NSCLC, 160 mg twice daily): 16.5 months
- ORR [2, 5]: 64%
- grade ≥3 hypertension [3]: around 20%

SMILES: COc1cc2nccc(Oc3ccc(NC(=O)C4(C(=O)Nc5ccc(F)cc5)CC4)cc3)c2cc1OC [cabozantinib]
- ORR [2, 6]: 28%
- mPFS [2, 6]: 5.5 months

SMILES: CO[C@]1(C(=O)N[C@@H](C)c2ccc(-n3cc(F)cn3)nc2)CC[C@H](c2nc(C)cc(Nc3cc(C)[nH]n3)n2)CC1 [pralsetinib]
- ORR [2, 5]: 61%
- grade ≥3 hypertension [3]: ~18%

SMILES: COc1cc2nccc(Oc3ccc(NC(=O)NC4CC4)c(Cl)c3)c2cc1C(N)=O [lenvatinib]
- ORR [1, 7]: 16%
- mPFS [1, 7]: 7.3 months
